# Experimental data published in patent publication US20060127505A1, “Anti-inflammatory formulations” (priority 2002, published 2006).
# Entries after “also recorded” stand apart in the source; their conditions may differ. Marks after values point to notes of the source that are not given here.
# Assays:
# [1] = system: PMA/I-treated human PBMC; assay: Inflammation-associated T cell surface antigens (CD25, CD54) in PMA/I-treated human PBMC, two-color flow cytometry; assay type: cell-based
# Experimental: In vitro studies indicate that astaxanthin suppresses expression of inflammation-associated T cell surface antigens in PMA/I-treated human PBMC. […]
# Analysis of blood for representation by selected lymphocyte subpopulations was conducted by two-color flow cytometry.
# [2] = system: TNF-α; assay: TNF-α expression by PHA-stimulated human PBMC, ELISA of supernatant; assay type: cell-based; conditions: PHA 50 μg/ml, 24 hours; 10^−6 M
# Experimental: PBMC (2×10^6/ml) from 2 donors were stimulated with 50 μg/ml, PHA; or with astaxanthin (10^−6 M); or with the ginkgolide BN52021 (GB) (10^−4 M); or with a combination of astaxanthin (10^−6 M) plus GB (10^−4 M); or with media. Cells were cultured 24 hours at 37° C., 5% CO2 and analyzed by ELISA for supernatant concentration of TNF-α. Each data point is the mean of triplicate samples.
# [3] = system: ovalbumin(OA)-induced asthma in guinea pigs; assay: Ovalbumin-induced asthma in guinea pigs: inflammatory cells in BAL fluid; assay type: in vivo, guinea pig; conditions: for Eosinophils / Macrophages / Neutrophils: BAL fluid 24 hours after OV challenge
# Experimental: The effect combinations of vitamin C, astaxanthin, and ginkolide on asthma-associated disease parameters ovalbumin(OA)-induced asthma in guinea pigs was evaluated. Twenty-four hours following OA challenge, animals are sacrificed and numbers of inflammatory cells (eosinophils, neutrophils, macrophages) are measured in bronchoalveolar lavage (BAL) fluid; and cAMP and cGMP concentrations in the lung tissue. The experiments were carried out as follows. Male Hartley guinea pigs (250-350 g) were sensitized by intramuscular injections of 0.35 ml of a 5% (W/V) ovalbumin (OA)/saline solution into each thigh on days 1 and 4. Guinea pigs were ready for asthmatic challenge after 25 days of ovalbumin injection. Asthmatic challenge was carried out with ovalbumin aerosol, and bronchoalveolar lavage (BAL) was done 24 hours later. The numbers of eosinophils, neutrophils, and macrophages in the BAL fluid were counted. Twenty-four hours after the aerosol OA challenge, guinea pigs were killed by cervical dislocation and exsanguinated by severing the axillary arteries. Lungs were lavaged with 50 ml of DulBecco's phosphate-buffered saline (aliquots of 10 ml), which were aspirated after gentle chest massage. BAL fluid was centrifuged at 2200 rpm (1100×g) for 10 min, supernatant was aspirated, and pellets were resuspended in 5 ml 0.25% NaCl to lyse residual erythrocytes. This dispersion was centrifuged at 2200 rpm (1100×g) for 10 min, supernatant was aspirated, and pellets were resuspended 5 ml 0.9% NaCl. Total cell counts were done by hemocytometry using trypan blue stain. Slides were prepared on a Shandon Cytospin 2 (Pittsburgh, Pa.) at 300 rpm for 5 min, fixed and stained. Differential cell counts were done using standard morphologic criteria to classify cells as eosinophils, neutrophils, or macrophages, and the results were expressed in cell numbers. The dose-responsive effect of AX, EGb761, and vitamin C administered independently for suppression of asthma-associated parameters in allergen-induced, asthmatic guinea pigs was determined. Ibuprophen (IB) was used as the positive control. Concentration of inflammatory cells in bronchoalveolar lavage (BAL) fluid and levels of cAMP and cGMP in lung tissue were measured in guinea pigs 24 hours following challenge with OV. Data is reported as mean±SD of measurements taken in 6 animals per dosage cohort. *p<0.05 compared to corresponding values of OV antigen-challenged, drug-free control group. The dose-responsive effect of AX, EGb761, and vitamin C administered in combination for suppression of asthma-associated parameters in allergen-induced, asthmatic guinea pigs was determined. The combination of these three components was given each day for each guinea pig as a “cocktail”. Concentration of inflammatory cells in bronchoalveolar lavage (BAL) fluid and levels of cAMP and cGMP in lung tissue were measured in guinea pigs 24 hours following challenge with OV. Data is reported as mean±SD of measurements taken in 6 animals per dosage cohort. *p<0.05 compared to corresponding values of OV antigen-challenged, drug-free control group.
# [4] = system: CD3+CD25+ lymphocytes in human PBMC; assay: PHA-mediated induction of CD3+CD25+ lymphocytes in human PBMC (Example 8); assay type: cell-based; conditions: PHA 50 μg/ml, 24 hours
# Experimental: (§1) Cells from 3-12 asthma patients were cultured 24 hours with 50 μg/ml PHA. PBMC evaluated by 2-color flow cytometry were gated for CD3+ and analyzed for CD3+CD25+ or CD3+HLA-DR+ as a percentage of the CD3+ population. Results are reported as stimulation indices (SI) calculated as the ratio of % CD3+CD25+ cells or % CD3+HLA-DR+ cells in fully-stimulated cultures to % CD3+CD25+ or % CD3+HLA-DR+ respectively in cells treated with PHA plus ASX, GB, or combinations thereof.
# [5] = system: CD3+HLA-DR+ lymphocytes in human PBMC; assay: PHA-mediated induction of CD3+HLA-DR+ lymphocytes in human PBMC (Example 8); assay type: cell-based; conditions: PHA 50 μg/ml, 24 hours
# Experimental: as §1
# [6] = Allergy symptoms in an allergy patient; assay type: in vivo, human
# Experimental: Astaxanthin or astaxanthin plus a cetirizine together was administered to an allergy patient.
structure (smiles),measurement,setting,value
"CC1=C(/C=C/C(C)=C/C=C/C(C)=C/C=C/C=C(C)/C=C/C=C(C)/C=C/C2=C(C)C(=O)[C@@H](O)CC2(C)C)C(C)(C)C[C@H](O)C1=O [astaxanthin, 3,3′-dihydroxy-4,4′-diketo-B-carotene]",% CD3+CD54+ cells,"[1]; Subject A, first column, 10^-6 M",4.2%
same,% CD3+CD54+ cells,"[1]; Subject A, first column, 10^-7 M",8.4%
same,% CD3+CD54+ cells,"[1]; Subject A, second column, 10^-6 M",3.3%
same,% CD3+CD54+ cells,"[1]; Subject A, second column, 10^-7 M",10.6%
same,% CD3+CD54+ cells,"[1]; Subject B, first column, 10^-6 M",6.3%
same,% CD3+CD54+ cells,"[1]; Subject B, first column, 10^-7 M",16.2%
same,% CD3+CD54+ cells,"[1]; Subject B, second column, 10^-6 M",10.3%
same,% CD3+CD54+ cells,"[1]; Subject B, second column, 10^-7 M",21.9%
same,TNF-alpha,[2],781.34 pg/mL
same,Eosinophils,[3]; 5 mg/kg,5.0 ± 0.7 cell × 10^6/animal
same,Macrophages,[3]; 5 mg/kg,9.6 ± 1.0 cell × 10^6/animal
same,Neutrophils,[3]; 5 mg/kg,5.4 ± 0.8 cell × 10^5/animal
same,Eosinophils,[3]; 10 mg/kg,4.6 ± 0.6 cell × 10^6/animal
same,Macrophages,[3]; 10 mg/kg,8.0 ± 0.8 cell × 10^6/animal
same,Neutrophils,[3]; 10 mg/kg,5.1 ± 0.6 cell × 10^5/animal
same,Eosinophils,[3]; 30 mg/kg,3.1 ± 0.5* cell × 10^6/animal
same,Macrophages,[3]; 30 mg/kg,3.7 ± 0.7* cell × 10^6/animal
same,Neutrophils,[3]; 30 mg/kg,3.3 ± 0.8* cell × 10^5/animal
same,Eosinophils,[3]; 100 mg/kg,2.4 ± 0.6* cell × 10^6/animal
same,Macrophages,[3]; 100 mg/kg,2.70 ± 0.7* cell × 10^6/animal
same,Neutrophils,[3]; 100 mg/kg,2.4 ± 0.5* cell × 10^5/animal
same,Eosinophils,[3]; 200 mg/kg,2.3 ± 0.5* cell × 10^6/animal
same,Macrophages,[3]; 200 mg/kg,2.6 ± 0.5* cell × 10^6/animal
same,Neutrophils,[3]; 200 mg/kg,2.0 ± 0.4* cell × 10^5/animal
same,protection against OV-induced asthma,"[3]; components used separately: 10 mg/kg AX, 200 mg/kg vit C, 10 mg/kg GB, listed as AX",failed to protect; also recorded: failed to reduce the severity of asthma
same,CD3+CD25+ Stimulation Index,[4]; 10^−4 M,0.49 ± 0.09
same,CD3+CD25+ Stimulation Index,[4]; 10^−5 M,0.95 ± 0.06
same,CD3+CD25+ Stimulation Index,[4]; 10^−6 M,0.96 ± 0.10
same,CD3+CD25+ Stimulation Index,[4]; 10^−7 M,0.90 ± 0.05
same,CD3+CD25+ Stimulation Index,[4]; 10^−8 M,0.95 ± 0.05
same,CD3+HLA-DR+ Stimulation Index,[5]; 10^−4 M,0.85 ± 0.18
same,CD3+HLA-DR+ Stimulation Index,[5]; 10^−5 M,0.79 ± 0.19
same,CD3+HLA-DR+ Stimulation Index,[5]; 10^−6 M,0.83 ± 0.23
same,CD3+HLA-DR+ Stimulation Index,[5]; 10^−7 M,0.71 ± 0.23
same,CD3+HLA-DR+ Stimulation Index,[5]; 10^−8 M,0.68 ± 0.16
same,alleviation of allergy symptoms such as itching,[6],did not result in alleviation of allergy symptoms
